Measurements: article PMC8536978 (Viruses, 2021)
pIC50: −log10 of the molar value. Read-outs that look alike come from different tables or passages of the source.

Key:
[1] = tested on: HIV-1 reverse transcription; assay: HIV-1 reverse transcription, early and late LTR DNA products by real-time PCR; type: cell-based; details: HIV-1 DNA 6 h post infection
PBMCs = assay: Trypan blue exclusion viability of HIV-1 IIIB infected PBMCs; type: cell-based
HIV-1 IIIB [2] = assay: HIV-1 IIIB replication in PBMCs (p24 ELISA, gag and nef mRNA RT-PCR); type: cell-based; details: for reduction in gag mRNA / reduction in p24 / reduction in HIV-1 nef mRNA: PBMCs infected with HIV-1 IIIB; for reduction in gag mRNA / reduction in HIV-1 nef mRNA: real-time RT-PCR; for reduction in p24: p24 ELISA
luciferase translation = assay: In vitro translation of luciferase RNA in rabbit reticulocyte lysate; type: biochemical; details: 30 μM, 90 min
Tat–CDK9 interaction = Tat–CDK9 interaction (UniProt P04608+P50750); assay: Co-immunoprecipitation of CDK9 with Flag-Tat from 293T cells; type: cell-based; details: 20 μM, 24 h
Sequence of Tat–CDK9 interaction (P04608 whole entry): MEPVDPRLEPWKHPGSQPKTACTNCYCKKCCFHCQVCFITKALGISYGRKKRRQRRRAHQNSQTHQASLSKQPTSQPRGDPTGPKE
Sequence of Tat–CDK9 interaction (P50750 whole entry): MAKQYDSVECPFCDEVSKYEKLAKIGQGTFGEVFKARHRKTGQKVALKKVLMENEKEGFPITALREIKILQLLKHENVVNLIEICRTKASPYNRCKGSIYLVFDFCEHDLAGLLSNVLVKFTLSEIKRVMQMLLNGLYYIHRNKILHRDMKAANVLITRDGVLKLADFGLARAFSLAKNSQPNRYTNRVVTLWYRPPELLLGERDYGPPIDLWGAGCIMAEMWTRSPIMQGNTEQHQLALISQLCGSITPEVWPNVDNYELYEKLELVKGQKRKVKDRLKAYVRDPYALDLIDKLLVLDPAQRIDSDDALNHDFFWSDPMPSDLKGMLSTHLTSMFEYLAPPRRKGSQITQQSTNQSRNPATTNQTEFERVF

[3] = MTT cell proliferation/viability assay; type: cell-based; details: human, CEM T cells, 1-100 μM
[4] = target: Tat–cyclin T1 interaction (UniProt O60563+P04608); assay: Co-immunoprecipitation of cyclin T1 with Flag-Tat from 293T cells; type: cell-based; details: 24 h; for reduction of cyclin T1 associated with Tat: 20 μM
Sequence of Tat–cyclin T1 interaction (P04608 whole entry): as the sequence (P04608 whole entry) above
Sequence of Tat–cyclin T1 interaction (O60563 whole entry): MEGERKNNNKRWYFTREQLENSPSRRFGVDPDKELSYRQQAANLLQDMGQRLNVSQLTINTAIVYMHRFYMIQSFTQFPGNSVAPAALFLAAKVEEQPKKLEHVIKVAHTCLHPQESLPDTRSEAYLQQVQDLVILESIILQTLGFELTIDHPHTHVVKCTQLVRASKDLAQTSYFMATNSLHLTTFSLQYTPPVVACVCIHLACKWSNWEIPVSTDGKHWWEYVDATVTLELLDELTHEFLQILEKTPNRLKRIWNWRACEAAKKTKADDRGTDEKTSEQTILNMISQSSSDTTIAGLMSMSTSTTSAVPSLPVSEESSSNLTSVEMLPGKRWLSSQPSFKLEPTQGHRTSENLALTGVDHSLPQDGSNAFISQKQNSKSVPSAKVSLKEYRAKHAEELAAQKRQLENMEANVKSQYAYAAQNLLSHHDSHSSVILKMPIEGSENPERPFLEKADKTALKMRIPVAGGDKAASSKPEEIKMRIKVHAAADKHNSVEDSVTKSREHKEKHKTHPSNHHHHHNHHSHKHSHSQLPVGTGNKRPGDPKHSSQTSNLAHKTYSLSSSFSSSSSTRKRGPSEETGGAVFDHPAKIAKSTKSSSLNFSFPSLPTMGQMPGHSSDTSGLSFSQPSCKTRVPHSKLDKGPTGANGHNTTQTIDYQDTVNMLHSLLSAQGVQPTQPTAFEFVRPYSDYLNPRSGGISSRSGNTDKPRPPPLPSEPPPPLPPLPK

HIV-1 IIIB [5] = assay: HIV-1 IIIB replication in CEM T cells (p24 ELISA, gag mRNA RT-PCR); type: cell-based; details: CEM T cells infected with HIV-1 IIIB; for reduction in p24 levels: p24 ELISA; for reduction of HIV-1 gag mRNA: real-time RT-PCR
HIV-1 LTR + Tat = type: cell-based; details: Human immunodeficiency virus 1, HEK-293T, 24 h, read-out: HIV-1 LTR + Tat (Tat-induced transcription) IC50
[6] = tested on: HIV-1-LUC-G (VSVG pseudotyped HIV-1 expressing luciferase); assay: microbe, parasite or virus in culture; type: cell-based; details: for pIC50: read-out: One round HIV-1 infection IC50
Tat–TAR RNA interaction = Tat–TAR RNA interaction pull-down assay; type: binding, HIV-1; details: 10 µM compound, Flag-Tat lysate, biotinylated TAR RNA on beads
HIV-1 LTR = assay: Basal HIV-1 transcription, HIV-1 LTR-luciferase reporter in 293T cells; type: cell-based; details: HIV-1 LTR-luciferase reporter alone, 24 h treatment
TAR RNA = tested on: TAR RNA; set-up: method as in earlier work; details: cited from earlier work
[7] = Human immunodeficiency virus 1, T-cell

| Structure (SMILES) | reduction in gag mRNA (HIV-1 IIIB [2]) | reduction in p24 (HIV-1 IIIB [2]) | reduction in HIV-1 nef mRNA (HIV-1 IIIB [2]) | reduction in CDK9 associated with Tat (Tat–CDK9 interaction) | EC50 at 24 h [3] | reduction in p24 levels (HIV-1 IIIB [5]) | reduction of HIV-1 gag mRNA (HIV-1 IIIB [5]) | pIC50 (HIV-1 LTR + Tat) | Luciferase (%, relative to DMSO control) [6] | pIC50 [6, 7] | pIC50 [6] | other results |
| --- | --- | --- | --- | --- | --- | --- | --- | --- | --- | --- | --- | --- |
| Cc1cn([C@H]2C[C@H](N=[N+]=[N-])[C@@H](CO)O2)c(=O)[nH]c1=O [AZT, azidothymidine] | strongly inhibited HIV-1 |  |  |  |  |  |  |  |  |  |  | reduction of HIV-1 early LTR products [1]: 1.8 fold; reduction of HIV-1 late LTR products [1]: 63 fold; reduction of PBMCs viability (PBMCs; human, 48 h): 29% |
| Nc1ccc2oc(-c3cc(F)c(F)cc3Cl)nc2c1 [T0516-4834] | 2.5 fold | 4 fold | 10 fold | 1.4 fold | > 100 µM | 4 fold | 27 fold | 5.70 | 37.74% | 6.70 | 6.52 | reduction in luciferase translation (luciferase translation): ~ 30%; HIV-1 inhibition (HIV-1 IIIB [2]; HIV-1 IIIB infected PBMCs, 10 µM): ~ 10 fold; inhibition at 20 µM ([4]; HEK-293T, read-out: reduction of cyclin T1 associated with Tat): < 20%; inhibition of Tat binding to TAR RNA (Tat–TAR RNA interaction): 2.5 fold |
| O=C1OCCC1Sc1nnc(-c2sc3ccccc3c2Cl)o1 (centres unmarked) [T5628834] |  | 3.2 fold | no effect | 4 fold | > 100 µM | 1.26 fold | 1.6 fold | 4.70 | 28.71% | 5.46 | 5.43 | reduction of cyclin T1 associated with Tat [4]: 1.6 fold |
| O=C(O)COc1ccc(/C=C/C(=O)c2ccc3c(c2)OCO3)cc1 [T6780107] | No significant effect | No significant effect | no effect | no effect | > 100 µM | 2.2 fold | 5.5 fold | 5.46 | 18.24% | 5.53 | 5.43 | pIC50 (HIV-1 LTR): 5.33; reduction of cyclin T1 associated with Tat [4]: no significant effect |
| CC(=O)c1ccc2c(c1)N(CCCN(C)C)c1ccccc1S2 [acetylpromazine] |  |  |  |  |  |  |  |  |  |  |  | affinity of binding to TAR RNA (TAR RNA): high affinity (nanomolar) |
| C[C@@H]1C[C@@H]([C@H](O)CC2CC(=O)NC(=O)C2)C(=O)[C@@H](C)C1 [cycloheximide, reference compound] |  |  |  |  |  |  |  |  |  |  |  | reduction in luciferase translation (luciferase translation): completely blocked translation |
| Cc1nnc(C(=O)NC(C)(C)c2nc(C(=O)NCc3ccc(F)cc3)c(O)c(=O)n2C)o1 [raltegravir, reference compound] | strongly inhibited HIV-1 |  |  |  |  |  |  |  |  |  |  | reduction of PBMCs viability (PBMCs; HIV-1 IIIB infected PBMCs, trypan blue exclusion): 18% |
